Tests used:
[1] = cited from earlier work
[2] = Solubility of resveratrol in glycerin tested using UV/vis spectroscopy; assay type: physicochemical
Source text: This low solubility inhibits adequate, reproducible absorption from the gastrointestinal tract. For this reason, poor solubility is closely associated with low bioavailability. […] Glycerin engages in H-bonding interactions at both ends of the molecule, forming a 2:1 H-bonding complex.

- times more soluble in glycerin than in water ([2]; glycerin versus water): at least 48 times
- solubility of resveratrol in glycerin ([2]; glycerin, UV/vis spectroscopy): ≥ 144 mg/100 mL
SMILES: Oc1ccc(C=Cc2cc(O)cc(O)c2)cc1 [resveratrol, 3,5,4′-trihydroxystilbene]
- solubility of resveratrol in water [1]: approximately 3 mg/100 mL
